Assay results: publication PMC6001238, “Iterative Chemical Engineering of Vancomycin Leads to Novel Vancomycin Analogs With a High in Vitro Therapeutic Index” (Frontiers in Microbiology, 2018)
Converted amounts (≈) assume the structure as drawn.

Tests used:
E. faecalis VSE 1 = assay: MIC, broth microdilution, vancomycin-sensitive E. faecalis (VSE 1); format: cell-based, Enterococcus faecalis; details: for MIC: Enterococcus faecalis VSE 1 (vancomycin-sensitive), read-out: MIC; for MIC-fold improvement vs. vancomycin: VSE 1, ratio of MIC of vancomycin and MIC of analogue
How it was run: (§1)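 Assayed by broth microdilution under CLSI antimicrobial testing rules. One case paired the analog or control drug with vancomycin at a 10 μM final concentration; water and inoculum-free broth were controls.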

E. faecalis VRE 6 = assay: MIC, broth microdilution, vancomycin-resistant E. faecalis VRE 6 (VanA); format: cell-based, Enterococcus faecalis; details: for MIC: Enterococcus faecalis VRE 6 (vancomycin-resistant), read-out: MIC; for MIC-fold improvement vs. vancomycin: VRE 6, ratio of MIC of vancomycin and MIC of analogue
How it was run: as §1

E. faecalis VRE 53 = assay: MIC, broth microdilution, vancomycin-resistant E. faecalis VRE 53 (VanA); format: cell-based, Enterococcus faecalis; details: for MIC: Enterococcus faecalis VRE 53 (vancomycin-resistant), read-out: MIC; for MIC-fold improvement vs. vancomycin: VRE 53, ratio of MIC of vancomycin and MIC of analogue
How it was run: as §1

E. faecalis VRE 29 = assay: MIC, broth microdilution, vancomycin-resistant E. faecalis VRE 29 (VanA); format: cell-based, Enterococcus faecalis; details: for MIC: Enterococcus faecalis VRE 29 (vancomycin-resistant), read-out: MIC; for MIC-fold improvement vs. vancomycin: VRE 29, ratio of MIC of vancomycin and MIC of analogue
How it was run: as §1

E. faecalis VRE 37 = assay: MIC, broth microdilution, vancomycin-resistant E. faecalis VRE 37 (VanA); format: cell-based, Enterococcus faecalis; details: for MIC: Enterococcus faecalis VRE 37 (vancomycin-resistant), read-out: MIC; for MIC-fold improvement vs. vancomycin: VRE 37, ratio of MIC of vancomycin and MIC of analogue
How it was run: as §1

[1] = tested on: Murine leukemia (L1210) cells; assay: Cytostatic activity, L1210 cell proliferation; format: cell-based; details: mean ± SD of three experiments; highest concentration tested 250 µM; 2 days; read-out: Toxicity (IC50) L1210
How it was run: (§2)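 Suspensions (300,000–500,000 cells/mL) combined with equal volumes of diluted compound; 37°C; L1210 2 d / CEM 3 d / HeLa 4 d; counted by Coulter counter; IC50 vs untreated wells.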

[2] = tested on: human T-lymphocyte (CEM) cells; assay: Cytostatic activity, CEM cell proliferation; format: cell-based; details: mean ± SD of three experiments; highest concentration tested 250 µM; 3 days; read-out: Toxicity (IC50) CEM
How it was run: as §2

[3] = tested on: human cervix carcinoma (HeLa) cells; assay: Cytostatic activity, HeLa cell proliferation; format: cell-based; details: mean ± SD of three experiments; highest concentration tested 250 µM; 4 days; read-out: Toxicity (IC50) HeLa
How it was run: as §2

[4] = tested on: L1210, CEM and HeLa cell lines; assay: Cytostatic activity, average or summary over L1210, CEM and HeLa; format: cell-based; details: average of L1210, CEM and HeLa; read-out: Toxicity (IC50) Average
How it was run: as §2

[5] = tested on: S. aureus VSSA (ATCC 6538); assay: MIC, broth microdilution, vancomycin-sensitive S. aureus (VSSA/MSSA, ATCC 6538); format: cell-based, Staphylococcus aureus; details: for MIC: Staphylococcus aureus VSSA, read-out: MIC; for MIC-fold improvement vs. vancomycin: VSSA, ratio of MIC of vancomycin and MIC of analogue
How it was run: as §1

S. aureus VISA/HIP5827 = assay: MIC, broth microdilution, vancomycin-intermediate S. aureus VISA HIP5827; format: cell-based, Staphylococcus aureus; details: for MIC: Staphylococcus aureus VISA/HIP5827, read-out: MIC; for MIC-fold improvement vs. vancomycin: VISA/HIP5827, ratio of MIC of vancomycin and MIC of analogue
How it was run: as §1

S. aureus VRSA = assay: MIC, broth microdilution, vancomycin-resistant S. aureus (VRSA); format: cell-based, Staphylococcus aureus; details: for MIC: Staphylococcus aureus VRSA, read-out: MIC; for MIC-fold improvement vs. vancomycin: VRSA, ratio of MIC of vancomycin and MIC of analogue
How it was run: as §1

MRSA KS2 = assay: MIC, broth microdilution, MRSA KS2; format: cell-based, Staphylococcus aureus; details: for MIC-fold improvement vs. vancomycin: MRSA KS2, ratio of MIC of vancomycin and MIC of analogue; for MIC: Staphylococcus aureus MRSA KS2, read-out: MIC
How it was run: as §1

MRSA KS6 = assay: MIC, broth microdilution, MRSA KS6; format: cell-based, Staphylococcus aureus; details: for MIC-fold improvement vs. vancomycin: MRSA KS6, ratio of MIC of vancomycin and MIC of analogue; for MIC: Staphylococcus aureus MRSA KS6, read-out: MIC
How it was run: as §1

MRSA KS89 = assay: MIC, broth microdilution, MRSA KS89; format: cell-based, Staphylococcus aureus; details: for MIC-fold improvement vs. vancomycin: MRSA KS8, ratio of MIC of vancomycin and MIC of analogue; for MIC: Staphylococcus aureus MRSA KS8, read-out: MIC
How it was run: as §1

MRSA KS1 = assay: MIC, broth microdilution, MRSA KS1; format: cell-based, Staphylococcus aureus; details: for MIC-fold improvement vs. vancomycin: MRSA KS1, ratio of MIC of vancomycin and MIC of analogue; for MIC: Staphylococcus aureus MRSA KS1, read-out: MIC
How it was run: as §1

Row | Compound | MIC (E. faecalis VSE 1) [µM] | MIC-fold improvement vs. vancomycin (E. faecalis VSE 1) | MIC (E. faecalis VRE 6) [µM] | MIC-fold improvement vs. vancomycin (E. faecalis VRE 6) | MIC (E. faecalis VRE 53) [µM] | MIC-fold improvement vs. vancomycin (E. faecalis VRE 53) | MIC (E. faecalis VRE 29) [µM] | MIC-fold improvement vs. vancomycin (E. faecalis VRE 29) | MIC (E. faecalis VRE 37) [µM] | IC50 [1] [µM] | IC50 [2] [µM] | IC50 [3] [µM] | IC50 [4] [µM] | MIC [5] [µM] | MIC-fold improvement vs. vancomycin [5] | MIC (S. aureus VISA/HIP5827) [µM] | MIC-fold improvement vs. vancomycin (S. aureus VISA/HIP5827) | MIC (S. aureus VRSA) [µM] | MIC-fold improvement vs. vancomycin (S. aureus VRSA) | MIC-fold improvement vs. vancomycin (MRSA KS2) | other results
1 | CN[C@H](CC(C)C)C(=O)N[C@H]1C(=O)N[C@@H](CC(N)=O)C(=O)N[C@H]2C(=O)N[C@H]3C(=O)N[C@H](C(=O)N[C@H](C(=O)NCC(=O)Nc4ccc(NS(=O)(=O)c5ccccc5)cc4)c4cc(O)cc(O)c4-c4cc3ccc4O)[C@H](O)c3ccc(c(Cl)c3)Oc3cc2cc(c3O[C@@H]2O[C@H](CO)[C@@H](O)[C@H](O)[C@H]2O[C@H]2C[C@](C)(N)[C@H](O)[C@H](C)O2)Oc2ccc(cc2Cl)[C@H]1O [Vanc-60] | 0.39 (≈ 0.677 µg/mL) | 4 | 12.5 (≈ 21.7 µg/mL) | 16 | 12.5 (≈ 21.7 µg/mL) | 32 | 12.5 (≈ 21.7 µg/mL) | 32 | 25 (≈ 43.4 µg/mL) | > 250 | 219 ± 44 | 75 ± 29 | 181 | 0.39 (≈ 0.677 µg/mL) | 2 | 0.78 (≈ 1.35 µg/mL) | 8 | 0.39 (≈ 0.677 µg/mL) | 256 | 2 | MIC-fold improvement vs. vancomycin (E. faecalis VRE 37): 16; MIC (MRSA KS2): 0.39 µM (≈ 0.677 µg/mL); MIC-fold improvement vs. vancomycin (MRSA KS6): 1; MIC (MRSA KS6): 0.78 µM (≈ 1.35 µg/mL); MIC-fold improvement vs. vancomycin (MRSA KS89): 2; MIC (MRSA KS89): 0.39 µM (≈ 0.677 µg/mL); MIC-fold improvement vs. vancomycin (MRSA KS1): 2; MIC (MRSA KS1): 0.39 µM (≈ 0.677 µg/mL)
2 | CN[C@H](CC(C)C)C(=O)N[C@H]1C(=O)N[C@@H](CC(N)=O)C(=O)N[C@H]2C(=O)N[C@H]3C(=O)N[C@H](C(=O)N[C@H](C(=O)NCC(=O)Nc4ccccc4)c4cc(O)cc(O)c4-c4cc3ccc4O)[C@H](O)c3ccc(c(Cl)c3)Oc3cc2cc(c3O[C@@H]2O[C@H](CO)[C@@H](O)[C@H](O)[C@H]2O[C@H]2C[C@](C)(N)[C@H](O)[C@H](C)O2)Oc2ccc(cc2Cl)[C@H]1O [Vanc-3] | 0.78 (≈ 1.23 µg/mL) | 2 | 12.5 (≈ 19.8 µg/mL) | 16 | 25 (≈ 39.5 µg/mL) | 16 | 25 (≈ 39.5 µg/mL) | 16 | 25 (≈ 39.5 µg/mL) | > 250 | > 250 | > 250 | > 250 | 0.78 (≈ 1.23 µg/mL) | 1 | 0.78 (≈ 1.23 µg/mL) | 8 | 25 (≈ 39.5 µg/mL) | 4 | 1 | MIC (MRSA KS2): 0.78 µM (≈ 1.23 µg/mL); MIC-fold improvement vs. vancomycin (MRSA KS6): 1; MIC (MRSA KS6): 0.78 µM (≈ 1.23 µg/mL); MIC-fold improvement vs. vancomycin (MRSA KS89): 1; MIC (MRSA KS89): 0.78 µM (≈ 1.23 µg/mL); MIC-fold improvement vs. vancomycin (MRSA KS1): 1; MIC (MRSA KS1): 0.78 µM (≈ 1.23 µg/mL)
3 | CNC(CC(C)C)C(=O)NC1C(=O)NC(CC(N)=O)C(=O)NC2C(=O)NC3C(=O)NC(C(=O)NC(C(=O)NCC(=O)Nc4ccc(-c5cn(-c6ccc(C)cc6)nn5)cc4)c4cc(O)cc(O)c4-c4cc3ccc4O)C(O)c3ccc(c(Cl)c3)Oc3cc2cc(c3OC2OC(CO)C(O)C(O)C2OC2CC(C)(N)C(O)C(C)O2)Oc2ccc(cc2Cl)C1O (stereo not drawn) [Vanc-76] | 0.78 (≈ 1.36 µg/mL) | 2 | 1.56 (≈ 2.71 µg/mL) | 128 | 3.13 (≈ 5.44 µg/mL) | 128 | 3.13 (≈ 5.44 µg/mL) | 128 | 3.13 (≈ 5.44 µg/mL) | 11 ± 7 | 3.2 ± 0.6 | 17 ± 2 | 10 | 0.39 (≈ 0.678 µg/mL) | 2 | 0.78 (≈ 1.36 µg/mL) | 8 | 0.78 (≈ 1.36 µg/mL) | 128 | 4 | MIC-fold improvement vs. vancomycin (E. faecalis VRE 37): 128; MIC (MRSA KS2): 0.20 µM (≈ 0.348 µg/mL); MIC-fold improvement vs. vancomycin (MRSA KS6): 4; MIC (MRSA KS6): 0.20 µM (≈ 0.348 µg/mL); MIC-fold improvement vs. vancomycin (MRSA KS89): 4; MIC (MRSA KS89): 0.20 µM (≈ 0.348 µg/mL); MIC-fold improvement vs. vancomycin (MRSA KS1): >8; MIC (MRSA KS1): <0.10 µM
4 | CN[C@H](CC(C)C)C(=O)N[C@H]1C(=O)N[C@@H](CC(N)=O)C(=O)N[C@H]2C(=O)N[C@H]3C(=O)N[C@H](C(=O)N[C@H](C(=O)NCCNC(=O)/C=C/c4ccc(Cl)cc4Cl)c4cc(O)cc(O)c4-c4cc3ccc4O)[C@H](O)c3ccc(c(Cl)c3)Oc3cc2cc(c3O[C@@H]2O[C@H](CO)[C@@H](O)[C@H](O)[C@H]2O[C@H]2C[C@](C)(N)[C@H](O)[C@H](C)O2)Oc2ccc(cc2Cl)[C@H]1O [Vanc-51] | 0.39 (≈ 0.659 µg/mL) | 4 | 6.25 (≈ 10.6 µg/mL) | 32 | 12.5 (≈ 21.1 µg/mL) | 32 | 12.5 (≈ 21.1 µg/mL) | 32 | 12.5 (≈ 21.1 µg/mL) | 80 ± 13 | 82 ± 21 | 106 ± 21 | 89 | 0.39 (≈ 0.659 µg/mL) | 2 | 0.78 (≈ 1.32 µg/mL) | 8 | 0.39 (≈ 0.659 µg/mL) | 256 | 4 | MIC (MRSA KS2): 0.20 µM (≈ 0.338 µg/mL); MIC-fold improvement vs. vancomycin (MRSA KS6): 4; MIC (MRSA KS6): 0.20 µM (≈ 0.338 µg/mL); MIC-fold improvement vs. vancomycin (MRSA KS89): 4; MIC (MRSA KS89): 0.20 µM (≈ 0.338 µg/mL); MIC-fold improvement vs. vancomycin (MRSA KS1): 4; MIC (MRSA KS1): 0.20 µM (≈ 0.338 µg/mL)
5 | CNC(CC(C)C)C(=O)NC1C(=O)NC(CC(N)=O)C(=O)NC2C(=O)NC3C(=O)NC(C(=O)NC(C(=O)NCC(=O)Nc4ccc(C(=O)c5ccccc5)cc4)c4cc(O)cc(O)c4-c4cc3ccc4O)C(O)c3ccc(c(Cl)c3)Oc3cc2cc(c3OC2OC(CO)C(O)C(O)C2OC2CC(C)(N)C(O)C(C)O2)Oc2ccc(cc2Cl)C1O (stereo not drawn) [Vanc-88] | ≤0.05 | ≥32 | 1.56 (≈ 2.63 µg/mL) | 128 | 12.5 (≈ 21.1 µg/mL) | 32 | 1.56 (≈ 2.63 µg/mL) | 256 | 3.13 (≈ 5.28 µg/mL) | 127 ± 32 | 32 ± 1 | 98 ± 23 | 86 | 0.39 (≈ 0.657 µg/mL) | 2 | 0.39 (≈ 0.657 µg/mL) | 16 | 0.78 (≈ 1.31 µg/mL) | 128 | 8 | MIC-fold improvement vs. vancomycin (E. faecalis VRE 37): 128; MIC (MRSA KS2): 0.10 µM (≈ 0.169 µg/mL); MIC-fold improvement vs. vancomycin (MRSA KS6): 2; MIC (MRSA KS6): 0.39 µM (≈ 0.657 µg/mL); MIC-fold improvement vs. vancomycin (MRSA KS89): 4; MIC (MRSA KS89): 0.20 µM (≈ 0.337 µg/mL); MIC-fold improvement vs. vancomycin (MRSA KS1): 8; MIC (MRSA KS1): 0.10 µM (≈ 0.169 µg/mL)
